Counter-ions that a name gives are not always drawn. Like-named read-outs stand apart in the source and are kept apart here.
Legend:
SUDHL10 cells [1] = assay: Induction of caspase-3/7 activity (Caspase-Glo 3/7), SUDHL10; format: cell-based; conditions: EC50, median, SUDHL10, 3 h treatment
Method in brief: (§1)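 DLBCL lines treated with compounds for 3 h at 37 °C in a humidified incubator; caspase-3/7 activity read with Caspase-Glo 3/7 luminescent reagent. Medium-only background subtracted from all values.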

AMO-1 cells = assay: Antiproliferation assay (CellTiter-Glo, 72 h), AMO-1; format: cell-based; conditions: IC50, median, AMO-1, 72 h, read-out: Antiproli AMO-1 [M] median
Method in brief: (§2)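 Cells were incubated with compounds for 72 h at 37°C. Viability was then read by CellTiter-Glo luminescence, and a parallel day 0 plate read the same way gave the time-zero signal.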

SUDHL5 cells [2] = assay: Antiproliferation assay (CellTiter-Glo, 72 h), SUDHL5; format: cell-based; conditions: IC50, median, SUDHL5, 72 h, read-out: Antiproli SUDHL5 [M] (median)
Method in brief: as §2

SUDHL5 cells [3] = assay: Induction of cytotoxicity (CellTiter-Glo, 5 h), SUDHL5; conditions: SUDHL5, 5 h
HMC-1-8 cells = assay: Antiproliferation assay (CellTiter-Glo, 72 h), HMC-1-8; format: cell-based; conditions: IC50, median, HMC-1-8, 72 h, read-out: Antiproli HMC-1-8 [M] median
Method in brief: as §2

SUDHL5 cells [4] = assay: Induction of caspase-3/7 activity (Caspase-Glo 3/7), SUDHL5; format: cell-based; conditions: EC50, median, SUDHL5, 3 h treatment
Method in brief: as §1

SUDHL10 cells [5] = assay: Induction of cytotoxicity (CellTiter-Glo, 5 h), SUDHL10; conditions: SUDHL10, 5 h
[6] = Homo sapiens, SU-DHL-5, 5 h, read-out: Cytotox SUDHL5 [M] (median), IC50, median
[7] = Homo sapiens, SU-DHL10, 5 h, read-out: Cytotox SUDHL10 [M] (median), IC50, median
[8] = read-out: Cytotox SUDHL5 [M] (median), IC50, median
[9] = read-out: Cytotox SUDHL10 [M] (median), IC50, median

CCc1c2c(nn1C)CCCN(CCCCO)CCn1c(C(=O)O)c(CCCOc3cccc4cc(F)ccc34)c3ccc(Cl)c-2c31 (racemic) [Example 122, (rac)-4-chloro-3-ethyl-7-{3-[(6-fluoro-1-naphthyl)oxy]propyl}-12-(4-hydroxybutyl)-2-methyl-10,11,12,13,14,15-hexahydro-2H-pyrazolo[3′,4′:8,9][1,4]diazacycloundecino[10,11,1-hi]indole-8-carboxylic acid]
EC50 (SUDHL10 cells [1]; Homo sapiens, SU-DHL10, 3 h): 750 nM
IC50 (AMO-1 cells; Homo sapiens, AMO1, 72 h): 5.1e-07 M
IC50 (SUDHL5 cells [2]; Homo sapiens, SU-DHL-5, 72 h): 6.8e-07 M
IC50 (SUDHL5 cells [3]; [6]): 1.1e-06 M
IC50 (HMC-1-8 cells; 72 h): 6.6e-06 M
EC50 (SUDHL5 cells [4]; Homo sapiens, SU-DHL-5, 3 h): 920 nM
IC50 (SUDHL10 cells [5]; [7]): 1.1e-06 M

CCc1c2c(nn1C)COCCC(F)(F)Cn1c(C(=O)O)c(CCCOc3cccc4cc(F)ccc34)c3ccc(Cl)c-2c31 (single isomer, unassigned) [Example 98, (+)-4-chloro-3-ethyl-11,11-difluoro-7-{3-[(6-fluoronaphthalen-1-yl)oxy]propyl}-2-methyl-2,10,11,12,13,15-hexahydropyrazolo[4′,3′:9,10][1,6]oxazacycloundecino[8,7,6-hi]indole-8-carboxylic acid]
EC50 (SUDHL10 cells [1]; listed as 098): 5000 nM
IC50 (AMO-1 cells; listed as 098): 6.9e-06 M
IC50 (SUDHL5 cells [2]; listed as 098): 2.2e-06 M
IC50 (SUDHL5 cells [3]; read-out: Cytotox SUDHL5 [M] (median), IC50, median, listed as 098): 7.3e-06 M
IC50 (HMC-1-8 cells; listed as 098): 5.9e-06 M
EC50 (SUDHL5 cells [4]; listed as 098): 6200 nM
IC50 (SUDHL10 cells [5]; read-out: Cytotox SUDHL10 [M] (median), IC50, median, listed as 098): 6.3e-06 M

CCc1c2c(nn1C)CCCCCCn1c(C(=O)O)c(CCCOc3cccc4ccccc34)c3ccc(Cl)c-2c31 (single isomer, unassigned; enantiomer 2) [Example 53, (−) 4-chloro-3-ethyl-2-methyl-7-{3-[(naphthalen-1-yl)oxy]propyl}-10,11,12,13,14,15-hexahydro-2H-pyrazolo[4′,3′:4,5]azacycloundecino[3,2,1-hi]indole-8-carboxylic acid-N-ethylethanamine salt—Enantiomer 2]
EC50 (SUDHL10 cells [1]): 700 nM
IC50 (AMO-1 cells): 1.5e-06 M
IC50 (SUDHL5 cells [2]): 7.4e-07 M
IC50 (SUDHL5 cells [3]; [8]): 4.8e-07 M
IC50 (HMC-1-8 cells; 72 h): 6.9e-06 M
EC50 (SUDHL5 cells [4]): 660 nM
IC50 (SUDHL10 cells [5]; [9]): 9.7e-07 M

CCc1c2c(nn1C)CN(C)CC(F)(F)CCn1c(C(=O)O)c(CCCOc3cccc4cc(F)ccc34)c3ccc(Cl)c-2c31 (single isomer, unassigned) [Example 127, 4-chloro-3-ethyl-12,12-difluoro-7-{3-[(6-fluoronaphthalen-1-yl)oxy]propyl}-2,14-dimethyl-10,11,12,13,14,15-hexahydro-2H-pyrazolo[3′,4′:8,9][1,6]diazacycloundecino[10,11,1-hi]indole-8-carboxylic acid]
EC50 (SUDHL10 cells [1]): 480 nM
IC50 (AMO-1 cells): 5.8e-07 M
IC50 (SUDHL5 cells [2]): 4.3e-07 M
IC50 (SUDHL5 cells [3]; [8]): 2.4e-07 M
IC50 (HMC-1-8 cells; 72 h): 2.2e-06 M
EC50 (SUDHL5 cells [4]): 280 nM
IC50 (SUDHL10 cells [5]; [9]): 3.8e-07 M

CCc1c2c(nn1C)CN(CC(F)F)CCCCn1c(C(=O)O)c(CCCOc3cccc4cc(F)ccc34)c3ccc(Cl)c-2c31 (single isomer, unassigned; enantiomer 2) [Example 76, (−)-4-chloro-14-(2,2-difluoroethyl)-3-ethyl-7-{3-[(6-fluoronaphthalen-1-yl)oxy]propyl}-2-methyl-10,11,12,13,14,15-hexahydro-2H-pyrazolo[3′,4′:8,9][1,6]diazacycloundecino[10,11,1-hi]indole-8-carboxylic acid N-ethylethanamine salt (Enantiomer 2)]
EC50 (SUDHL10 cells [1]; listed as 076): 260 nM
IC50 (AMO-1 cells; listed as 076): 2.4e-07 M
IC50 (SUDHL5 cells [2]; listed as 076): 3.2e-07 M
IC50 (SUDHL5 cells [3]; read-out: Cytotox SUDHL5 [M] (median), IC50, median, listed as 076): 3e-07 M
IC50 (HMC-1-8 cells; listed as 076): 4.4e-06 M
EC50 (SUDHL5 cells [4]; listed as 076): 240 nM
IC50 (SUDHL10 cells [5]; read-out: Cytotox SUDHL10 [M] (median), IC50, median, listed as 076): 4e-07 M

CCc1c2c(nn1C)CN(C)CCCn1c(C(=O)O)c(CCCOc3cccc4cc(F)ccc34)c3ccc(Cl)c-2c31 [Example 113, (+)-12-chloro-11-ethyl-1-{3-[(6-fluoronaphthalen-1-yl)oxy]propyl}-7,10-dimethyl-4,5,6,7,8,10-hexahydropyrazolo[3′,4′:7,8][1,5]diazecino[9,10,1-hi]indole-2-carboxylic acid N-ethylethanamine salt]
EC50 (SUDHL10 cells [1]): 360 nM
IC50 (AMO-1 cells): 3.2e-07 M
IC50 (SUDHL5 cells [2]): 2.1e-06 M
IC50 (SUDHL5 cells [3]; [8]): 3e-07 M
IC50 (HMC-1-8 cells): 3.7e-06 M
EC50 (SUDHL5 cells [4]): 270 nM
IC50 (SUDHL10 cells [5]; [9]): 6.5e-07 M

Cc1c2c(nn1C)COCC1CC1Cn1c(C(=O)O)c(CCCOc3cccc4ccccc34)c3ccc(Cl)c-2c31 (single isomer, unassigned) [Example 83, 3-chloro-4,5-dimethyl-14-{3-[(naphthalen-1-yl)oxy]propyl}-5,7,9a,10,10a,11-hexahydro-9H-cyclopropa[3,4]pyrazolo[4′,3′:9,10][1,6]oxazacycloundecino[8,7,6-hi]indole-13-carboxylic acid]
EC50 (SUDHL10 cells [1]; listed as 083): 410 nM
IC50 (AMO-1 cells; listed as 083): 3.8e-07 M
IC50 (SUDHL5 cells [2]; listed as 083): 5.2e-07 M
IC50 (SUDHL5 cells [3]; read-out: Cytotox SUDHL5 [M] (median), IC50, median, listed as 083): 5.8e-07 M
IC50 (HMC-1-8 cells; 72 h): 7.4e-06 M
EC50 (SUDHL5 cells [4]; listed as 083): 220 nM
IC50 (SUDHL10 cells [5]; read-out: Cytotox SUDHL10 [M] (median), IC50, median, listed as 083): 5.9e-07 M

CCc1c2c(nn1C)COCCC(F)(F)Cn1c(C(=O)O)c(CCCOc3cccc4cc(F)ccc34)c3ccc(Cl)c-2c31 (racemic) [Example 96, (rac)-4-chloro-3-ethyl-11,11-difluoro-7-{3-[(6-fluoronaphthalen-1-yl)oxy]propyl}-2-methyl-2,10,11,12,13,15-hexahydropyrazolo[4′,3′:9,10][1,6]oxazacycloundecino[8,7,6-hi]indole-8-carboxylic acid]
EC50 (SUDHL10 cells [1]; Homo sapiens, SU-DHL10, 3 h): 210 nM
IC50 (AMO-1 cells; Homo sapiens, AMO1, 72 h): 4.9e-07 M
IC50 (SUDHL5 cells [2]; Homo sapiens, SU-DHL-5, 72 h): 3.1e-07 M
IC50 (SUDHL5 cells [3]; [6]): 4.7e-07 M
IC50 (HMC-1-8 cells; 72 h): 5.3e-06 M
EC50 (SUDHL5 cells [4]; Homo sapiens, SU-DHL-5, 3 h): 480 nM
IC50 (SUDHL10 cells [5]; [7]): 3.5e-07 M

CCc1c2c(nn1C)CCCN(CC(F)(F)C(F)F)CCn1c(C(=O)O)c(CCCOc3cccc4cc(F)ccc34)c3ccc(Cl)c-2c31 (racemic) [Example 123, (rac)-4-chloro-3-ethyl-7-{3-[(6-fluoro-1-naphthyl)oxy]propyl}-2-methyl-12-(2,2,3,3-tetrafluoropropyl)-10,11,12,13,14,15-hexahydro-2H-pyrazolo[3′,4′:8,9][1,4]diazacycloundecino[10,11,1-hi]indole-8-carboxylic acid]
EC50 (SUDHL10 cells [1]; Homo sapiens, SU-DHL10, 3 h): 1100 nM
IC50 (AMO-1 cells; Homo sapiens, AMO1, 72 h): 7.7e-07 M
IC50 (SUDHL5 cells [2]; Homo sapiens, SU-DHL-5, 72 h): 2.2e-06 M
IC50 (SUDHL5 cells [3]; [6]): 6.6e-07 M
IC50 (HMC-1-8 cells; 72 h): 3.1e-06 M
EC50 (SUDHL5 cells [4]; Homo sapiens, SU-DHL-5, 3 h): 470 nM
IC50 (SUDHL10 cells [5]; [7]): 1.2e-06 M

Cc1c2c(nn1C)COCC(F)(F)CCn1c(C(=O)O)c(CCCOc3cccc4cc(F)ccc34)c3ccc(Cl)c-2c31 (single isomer, unassigned) [Example 92, 4-chloro-12,12-difluoro-7-{3-[(6-fluoronaphthalen-1-yl)oxy]propyl}-2,3-dimethyl-2,10,11,12,13,15-hexahydropyrazolo[4′,3′:9,10][1,6]oxazacycloundecino[8,7,6-hi]indole-8-carboxylic acid]
EC50 (SUDHL10 cells [1]; Homo sapiens, SU-DHL10, 3 h): 590 nM
IC50 (AMO-1 cells; Homo sapiens, AMO1, 72 h): 5.4e-07 M
IC50 (SUDHL5 cells [2]; Homo sapiens, SU-DHL-5, 72 h): 8.2e-07 M
IC50 (SUDHL5 cells [3]; [6]): 3.4e-07 M
IC50 (HMC-1-8 cells; 72 h): 6.8e-06 M
EC50 (SUDHL5 cells [4]; Homo sapiens, SU-DHL-5, 3 h): 280 nM
IC50 (SUDHL10 cells [5]; [7]): 8.1e-07 M

CCc1c2c(nn1C)CCCN(C)CCn1c(C(=O)O)c(CCCOc3cccc4cc(F)ccc34)c3ccc(Cl)c-2c31 (racemic) [Example 115, (rac)-4-chloro-3-ethyl-7-{3-[(6-fluoronaphthalen-1-yl)oxy]propyl}-2,12-dimethyl-10,11,12,13,14,15-hexahydro-2H-pyrazolo[3′,4′:8,9][1,4]diazacycloundecino[10,11,1-hi]indole-8-carboxylic acid]
EC50 (SUDHL10 cells [1]; Homo sapiens, SU-DHL10, 3 h): 1400 nM
IC50 (AMO-1 cells; Homo sapiens, AMO1, 72 h): 9.1e-07 M
IC50 (SUDHL5 cells [2]; Homo sapiens, SU-DHL-5, 72 h): 7.8e-07 M
IC50 (SUDHL5 cells [3]; [6]): 4.4e-07 M
IC50 (HMC-1-8 cells; 72 h): 8e-06 M
EC50 (SUDHL5 cells [4]; Homo sapiens, SU-DHL-5, 3 h): 160 nM
IC50 (SUDHL10 cells [5]; [7]): 1.4e-06 M
